Results on 5 compounds are retold here after patent US6444420B2, “Use of GPR30 receptor ligands to mediate neurotrophic action” (The Board of Trustees of the Leland Stanford Junior …, priority 1999, dated 2002).

In one assay the test system is Rap1. The experiment in a line: Rap1 activation pull-down assay in PC12 cells. Format: cell-based. Particulars: for Effect on Rap1 activation induced by 17β-estradiol: 100 nM 17β-estradiol plus 1 μM tamoxifen. Here is the method: FIGS. 2A, 2B, 2C, 2D: 17β-estradiol elicits Rap1, but not Ras, activation in PC12 cells. Serum-starved PC12 cells were treated with 100 nM 17β-estradiol for the indicated time intervals. Activated Ras (A) and Rap1 (B) were precipitated from cell lysates and analyzed as described in the Materials and Methods. […] Tomaxifen itself has no effect on Rap1 activation in PC12 cells D.
Drug Screening Assays: These are used to identify GPR30 ligands that bind to and activate the GPR30 receptor. Drug screening identifies agents that enhance GPR30 activity. Of particular interest are screening assays for agents that have a low toxicity for human cells. In vitro or in vivo binding assays can be used to assess the extent to which a compound behaves as a specific ligand. Other assays are available to test for the activation of signaling pathways by ligand binding. One assay based on the finding that GPR30 activation results in the activation of the small GTPase Rap1, and of the other enzymes in the MAP kinase signaling pathway that is activated by Rap1. The assay for evaluating the activation of Rap1 examines the extent to which Rap1 is bound to GTP and employs a method as described by Herrmann et al. (1995) J. Biol. Chem 270:2901-2905. A wide variety of assays are available to assess the activation status of the enzymes downstream from Rap1. These include in vitro kinase assays for B-Raf, MEK, MAP kinase and Rsk (Cowley et al. (1994) Cell 77:841-852; Vossler et al. (1997) Cell 89:73-82). The activation of these proteins and some of their downstream targets (e.g. Elk-1 and CREB) may also be assessed through the use of antibodies to phosphorylated tyrosine or serine or threonine residues, which marks their active state (Payne et al. (1991) EMBO J. 10(4):885-892).
(§1) The reagents used in these studies were those specified in the original references to methods employed, unless otherwise specified. We used established cell culture methods for growing cells and for examining their morphological responses (Zhou et al. (1994) Proc. Natl. Acad. Sci USA 91(9):3824-3828). To examine gene expression for GPR30 and the classical ERs, standard methods were used to isolate mRNA and to analyze it by Northern blot and by RT-PCR (GIBCO-BRL, Bethesda, Md.). The activity of Rap1 and of Ras were assayed using pull-down assays with fusion proteins that bind specifically to the GTP-bound forms of these proteins, as described (Herrmann et al. (1995) J. Biol. Chem. 270:2901-2905). These fusion proteins were produced essentially as described by these authors. The activity of MAP kinase was determined by immunoblotting cell lysates with antibodies to phosphorylated MAP kinase (Payne et al. (1991) EMBO J. 10(4):885-892). The source of these antibodies was from New England Biolabs, Inc. (Beverley, Mass.).

A further assay deals with Ras. Put plainly: Ras activation pull-down assay in PC12 cells. Particulars: serum-starved PC12 cells, 100 nM 17β-estradiol, indicated time intervals. It is filed as cell-based.
In the next assay the test system is Erk kinases (MAP kinase). The experiment in a line: Erk (MAP kinase) activation by immunoblot of PC12 cell lysates. Conditions: serum-starved PC12 cells, 100 nM 17β-estradiol, indicated time intervals. Format: cell-based. Here is the method: as §1, with “As in FIG. 2, serum-starved PC12 cells were treated with 100 nM 17β-estraldiol for the indicated time intervals. Cells were-rinsed and lysed in RIPA buffer. Proteins were separated on SDS-PAGE, blotted onto PVDF membrane. The blot was probed for activated Erks (i.e activated MAP kinase) using rabbit IgGs against activated Erk kinases (UBI). The reagents” for “The reagents”

In another assay the test system is PC12 cells. Put plainly: PC12 cell differentiation and survival in serum-free media. It is filed as cell-based. Particulars: serum-free media with 100 nM 17β-estradiol, 6 days. The procedure: as §1, with “PC12 cells were maintained in either serum-free media (A) or serum-free media supplemented with 100 nM 17β-estradiol (B) for 6 days. Cells were monitored with phase-contrast microscope and typical images were captured using a CCD camera. Differentiated PC12 cells (arrows) can be observed with 17β-estradiol treatment (B), whereas massive cell death occurred in the control (A). The reagents” for “The reagents”, “J. 10(4):885-892). […]” for “J. 10(4):885-892). The source of these antibodies was from New England Biolabs, Inc. (Beverley, Mass.).”

Assay [1] has as its system 145 kDa intermediate neurofilament. The experiment in a line: 145 kDa intermediate neurofilament expression in PC12 cells (immunoblot). Format: cell-based. Particulars: serum-free media, 3 days. The source says: FIG. 5: Induction of the 145 kDa intermediate neurofilament expression by 17β-estradioi in PC12 cells. PC12 cells were maintained in either serum-free media supplemented with either NGF or 17β-estradiol at the indicated concentrations for 3 days. Treated as well as control cells were lysed in RIPA buffer and the lysates were separated on SDS-PAGE, transferred onto PVDF membrane. The blot was probed with specific antibodies against the 145 kDa intermediate neurofilament.

The subject of assay [2] is mitogen-activated protein (MAP) kinases. Particulars: literature, Singh et al. (1999); cited from earlier work.

Entries after “also recorded” stand apart in the source; their conditions may differ.

Description for Ras: Serum-starved PC12 cells were treated with 100 nM 17β-estradiol for the indicated time intervals. Activated Ras (A) and Rap1 (B) were precipitated from cell lysates and analyzed as described in the Materials and Methods. […] The activity of Rap1 and of Ras were assayed using pull-down assays with fusion proteins that bind specifically to the GTP-bound forms of these proteins, as described (Herrmann et al. (1995) J. Biol. Chem. 270:2901-2905). These fusion proteins were produced essentially as described by these authors.

Consider `C[C@]12CC[C@@H]3c4ccc(O)cc4CC[C@H]3[C@@H]1CC[C@@H]2O` [17β-estradiol], for which the “Activation of Rap1 during the first 10 minutes of treatment” value with Rap1 (PC12 cells, first 10 minutes) was “little effect”. Moreover, in the assay with Rap1 (PC12 cells, later than 10 minutes), the “Activation of Rap1 at later times” value is “marked effect”. Further, the Rap1 activation result in the assay with Rap1 (serum-starved PC12 cells, 100 nM 17β-estradiol, indicated time intervals) is “induces Rap1 activation; also recorded: activated Rap1”. In the assay with Ras, the Ras activation entry was “no detectable Ras activation and not”. Besides, in the assay with Erk kinases (MAP kinase), the “Erk / MAP kinase activation (pERK)” value is “induces prolonged Erk activation; also recorded: induced sustained activation”. In the assay with PC12 cells, the “PC12 cell differentiation (neurite outgrowth)” value is “induces PC12 cell differentiation; also recorded: induced the outgrowth of long neurites” and the “PC12 cell survival under serum free culture” value is recorded as “prevented these cells from dying”. The “Expression of the 145 kDa intermediate neurofilament protein” value in assay [1] is recorded as “Induction; also recorded: increasing the level of expression”.
17β-estradiol: the “Tyrosine phosphorylation/activation of MAP kinases” value in assay [2] is “elicited rapid tyrosine phosphorylation/activation”.
As to `COc1cccc(-c2cc(=O)c3ccccc3o2)c1N` [PD98059], the “Inhibition of estradiol-elicited extracellular signal-regulated protein kinase activation” value in assay [2] is listed as “inhibited successfully”.
Regarding `CC/C(=C(\c1ccccc1)c1ccc(OCCN(C)C)cc1)c1ccccc1` [tamoxifen], the “Effect on Rap1 activation induced by 17β-estradiol” value in the assay on Rap1 (PC12 cells) is “blocked the response”; in the assay on Rap1 (PC12 cells, listed as tomaxifen), “can be blocked”. The “Rap1 activation by the substance alone” value in the assay on Rap1 (PC12 cells, tamoxifen alone) is on record as “no effect”.
Regarding `C[C@]12CC[C@@H]3c4ccc(O)cc4C[C@@H](CCCCCCCCC[S+]([O-])CCCC(F)(F)C(F)(F)F)[C@H]3[C@@H]1CC[C@@H]2O` (some centres unmarked) [ICI 182,780], the “Inhibition of estradiol-elicited extracellular signal-regulated protein kinase activation” value in assay [2] was “not”.
